The values that follow come from patent US20230145823A1 (priority 2020, published 2023).

Like-named read-outs stand apart in the source and are kept apart here.

The conditions of data set [1]: cited from earlier work.
The next data set concerns TLR4. As to the kind of experiment: LPS-induced TLR4 expression in RAW264.7 macrophage cells, flow cytometry. The class given is cell-based. The following applies: RAW264.7 cells stimulated with LPS. The procedure: RAW264.7 cells were purchased from ATCC and maintained in Dulbecco's Modified Eagle's Medium (DMEM) containing foetal bovine serum (FBS) at a final concentration of 10%. RAW264.7 cells were seeded in 12-well plates at 0.25×10^6 cells/well seeding density, one day before experiments. […]; conditioned media and lysates were harvested for analysis.
Cells were harvested and re-suspended with staining buffer. Cells were stained with antibody (1:100) by incubating at 4° C. for 30 min in the dark. Stained cells were centrifuged, and the supernatant was discarded. The cell pellets were then re-suspended in cell flow buffer, transferred to FACS tubes and analyzed by flow cytometry within 48 h. To all cells in the experiment, Fc blocker was added.
LPS is recognized by the cell surface pattern-recognition receptors such as the toll-like receptor 4 protein (TLR4) and triggers downstream signaling pathways. LPS induces expression of the pro-inflammatory cytokine IFNγ. IFNγ is known to increase TLR4 expression which may then promote the response to LPS stimulation. […]

In data set [2] the test system is interleukin-1 receptor antagonist (IL-1RA). Description: IL-1RA in conditioned medium of differentiated THP-1 cells, Multiplex assay using flow cytometry. The class given is cell-based. The following applies: LPS and IFNγ, 48 h. Here is the method: (§1) THP-1 cells (ATCC) were maintained in RPMI 1,640 medium supplemented with 2-mercaptoethanol at a final concentration of 0.05 mM and FBS at a final concentration of 10%. THP-1 cells were seeded in each well of a 12-well tissue culture plate at a density 0.5×10^6 cells/mL, one day before experiments. THP-1 monocytes were differentiated by 150 nM PMA (phorbol 12-myristate 13-acetate) for 24 h.
The levels of anti-inflammatory cytokines from the conditioned medium of differentiated THP-1 cells were measured after 48 h of stimulation with LPS and IFNγ by Multiplex assay using flow cytometry.

For a further data set, the system named is IL-6. As to the kind of experiment: LPS-induced IL-6 production from SIM-A9 cells, ELISA. The class given is cell-based. The following applies: SIM-A9 cells stimulated with LPS. Here is the method: (§2) Cytokines were quantified using ELISA kits following the manufacturer's instructions. Briefly, the high-binding plates were coated at 100 μL/well with diluted capture antibodies (1:250) at 4° C. overnight. The coated plates were then blocked with the diluent for 1 h before assay. Each sample was diluted accordingly and added to the plates for a 2 h incubation period at room temperature. Plates were then washed with 250 μL/well PBS with 0.05% Tween-20 and incubated with detection antibodies (1:250 in assay diluent) for 1 h at room temperature. After another washing step, 1:250 diluted avidin-HRP (horseradish peroxidase) was added and incubated for 30 min. Next, 100 μL TMB-substrate (3,3′,5,5′-tetramethylbenzidine) was added and the plate was incubated in the dark until the signal was sufficiently developed. […]. Absorbance was measured at 450 nm with a correction of 570 nm using a plate reader.
(§3) SIM-A9 (ATCC) cells were maintained in Dulbecco's modified eagle medium: nutrient mixture F-12 (DMEM-F12) with 10% foetal bovine serum, 5% horse-serum and antibiotic-antimycotic. SIM-A9 cells were seeded 24 h before the experiment. Culturing medium was replaced with DMEM-F12 medium containing 5% FBS+2.5% horse serum with required LPS concentration (final volume was one mL/well). The conditioned media and lysates were harvested for cytokine and cell marker examination.
. […]
In general terms: In an ELISA, binding on a coated surface is turned into a signal by an enzyme label.

Data set [3] relates to inducible nitric oxide synthase (iNOS). Particulars: RAW264.7, LPS+IFNγ, 25 μM furosemide, 24 h.
Method: Cells were washed twice with ice-cold PBS and harvested in RIPA buffer supplemented with a protease inhibitor cocktail. The whole-cell extracts were then centrifuged at 22,000×g for 20 min at 4° C. to remove cell debris. Protein concentrations were quantified using a Micro BCA protein assay kit. The absorbance was measured at 595 nm using a microplate reader. Equal amounts of cellular protein were separated by sodium dodecyl sulfate-polyacrylamide gel electrophoresis (SDS-PAGE) and transferred onto polyvinylidene difluoride (PVDF) membranes at 100 V for 90 min. The SDS-PAGE was performed with 10% polyacrylamide gel for iNOS and 12.5% for pro-IL-1β. The membranes were blocked for 1 h in Tris-buffered saline (TBS), pH 7.4, with 0.1% Tween-20 (TBS-T) containing 10% skim milk. The membrane blot was then incubated overnight at 4° C. with primary antibodies against iNOS (1:1,000), IL-1(3 (1:1,000), actin (1:5,000) and GAPDH (1:5,000) in TBS-T containing 5% skim milk. The membrane was washed with TBS-T 3×10 mins and incubated with goat anti-rabbit IgG-horseradish peroxidase (1:5,000) for 1 hour. After the washing step, the immunoblotting was visualized by chemiluminescence HRP-substrate.
The test system of data set [4] is NO. The class given is cell-based. The following applies: RAW264.7 cells, LPS, 25 μM furosemide, 24 h.
For data set [5] the following is noted: previous studies; cited from earlier work.
For another data set, the system named is pro-IL-1β. Description: pro-IL-1β expression in differentiated THP-1 macrophages, Western blot. The class given is cell-based. Particulars: PMA-differentiated THP-1 cells, LPS/IFNγ, 48 h. Here is the method: as §1
Cells were washed twice with ice-cold PBS and harvested in RIPA buffer supplemented with a protease inhibitor cocktail. The whole-cell extracts were then centrifuged at 22,000×g for 20 min at 4° C. to remove cell debris. Protein concentrations were quantified using a Micro BCA protein assay kit. The absorbance was measured at 595 nm using a microplate reader. Equal amounts of cellular protein were separated by sodium dodecyl sulfate-polyacrylamide gel electrophoresis (SDS-PAGE) and transferred onto polyvinylidene difluoride (PVDF) membranes at 100 V for 90 min. The SDS-PAGE was performed with 10% polyacrylamide gel for iNOS and 12.5% for pro-IL-1β. The membranes were blocked for 1 h in Tris-buffered saline (TBS), pH 7.4, with 0.1% Tween-20 (TBS-T) containing 10% skim milk. […]

The test system of data set [6] is NO. Description: LPS-induced NO production from SIM-A9 cells, Griess assay. The class given is cell-based. Particulars: SIM-A9 cells stimulated with LPS. Here is the method: Nitric oxide production from the conditioned media of RAW264.7 and SIM-A9 cell cultures was examined by a Griess assay. Conditioned medium and sulfanilamide were mixed in a microwell plate to form a transient diazonium salt. Then, N-naphtyl-ethylenediamine was added to all wells to form a stable azo compound by incubating for 5-10 min in the dark at room temperature. The absorbance was measured between 520 nm and 550 nm. The concentration of NO production was quantified by being plotted against a standard curve.
as §3
. IL-1β plays a key role in modulating inflammatory response as a downstream pro-inflammatory marker of the TLR4 signaling pathway by using differentiated THP-1 monocytes. The expression of IL-1β precursor protein (pro-IL-1β) from THP-1 macrophage cells was studied using Western blot analysis. […]. […]

The next data set has as its system arginase. As to the kind of experiment: Arginase in conditioned medium of differentiated THP-1 cells, Multiplex assay using flow cytometry. The class given is cell-based. Particulars: LPS and IFNγ, 48 h. Here is the method: as §1
(§4) . The levels of anti-inflammatory cytokines from the conditioned medium of differentiated THP-1 cells were measured after 48 h of stimulation with LPS and IFNγ by Multiplex assay using flow cytometry. […]

The conditions of data set [7]: cited from earlier work. This is another data set of the same source.
In the next data set the test system is IL-4. As to the kind of experiment: IL-4 in conditioned medium of differentiated THP-1 cells, Multiplex assay using flow cytometry. The class given is cell-based. The following applies: LPS and IFNγ, 48 h. Here is the method: as §1, §4
In general terms: A flow cytometer gives signals particle by particle.

The subject of data set [8] is TNF-α. The class given is cell-based. The following applies: RAW264.7 cells, LPS, 25 μM furosemide, 24 h.
The test system of data set [9] is TNF-α. Description: LPS-induced TNF-α production from SIM-A9 cells, ELISA. The class given is cell-based. The following applies: SIM-A9 cells stimulated with LPS. The procedure:
as §2, §3
. […]

The next data set deals with COVID-19. Particulars: cited from earlier work.
The mark [10] stands for this setting: Grogono et al. 2018, nebulized 40 mg in 4 mL 0.9% saline, healthy adults, multiple dosing per day.
Setting [11] is: 21 patients with severe COVID-19, within a few days.
Setting [12] is: 21 patients with severe COVID-19.

On to `NS(=O)(=O)c1cc(C(=O)O)c(NCc2ccco2)cc1Cl` [furosemide, 4-chloro-N-furfuryl-5-sulfamoylanthranilic acid], for which, in data set [1] (setting [10]), the “relief of experimentally induced air hunger” value is “effective relief”. Further, in [1] (setting [10]), the untoward effects entry is reported as “no untoward effects”. The “dose shown safe by inhalation” value in data set [1] (inhalation, previous studies) is “up to 120 mg per dose”. Besides, in data set [1] (inhaled furosemide, patients with respiratory conditions), the “lung IL-6, IL-8, and TNF-α levels” value is given as “reduction”. The urge to urinate result in data set [1] (patients receiving inhaled furosemide up to 40 mg) is “no increase”. For the same compound, the “LPS-induced TLR4 expression (TLR4+ cell population)” value was “completely blocked” with TLR4 and “significantly decreases” in the data set on TLR4 (listed as Furosemide). The “expression of IL-1RA” value in data set [2] is listed as “induces”. In addition, the “production of IL-6” value with IL-6 is “significantly reduced”. Further, the “expression of iNOS” value in data set [3] is “suppress”. The “production of NO” value is given as “significantly decreased” with NO [4], “decreases” with NO [4] (listed as Furosemide) and “significantly reduced” with NO [6]. In data set [5], the “time to be shuttled from the lung and excreted” value was 4 to 6 h. In the data set with pro-IL-1β, the “expression of pro-IL-1β” value is “significantly decreases”. Moreover, the expression of arginase result in the data set on arginase is listed as “induces”. The solution concentration achievable is on record as 10 mg/mL in data set [7] (non-salt furosemide, aqueous isotonic saline, pH between 8.0 and 9.3); 10 mg/mL in data set [7] (weakly basic buffer solution (pH 8)). Also, the “expression of IL-4” value in the data set on IL-4 was “induces”. Also, the “production of TNF-α” value is given as “significantly decreased” in the data set with TNF-α [8], “decreases” with TNF-α [8] (listed as Furosemide) and “significantly reduced” with TNF-α [9].
Consider “tocilizumab: Roche's tocilizumab (Actemra), an IL-6 inhibitor”, for which, in the data set on COVID-19 (setting [11]), the all other symptoms result was “improved remarkably” and the fevers entry is recorded as “returned to normal”. In addition, in the data set on COVID-19 (setting [12]), the adverse reactions result is on record as “no obvious adverse reactions” and the “patients who lowered their oxygen intake” value is given as 75%. The “average time to discharge following treatment” value with COVID-19 (nineteen discharged patients) is recorded as 13.5 days.
